From patent publication US20120213805A1, “Amatoxin-Armed Tartget-Binding Moieties for the Treatment of Cancer” (priority 2009, published 2012)

Legend:
RNA-polymerase II = RNA-polymerase II (Homo sapiens, UniProt P24928); details: not covalently bound; read-out: KD of complex between amanitin and RNA-polymerase II; cited from earlier work
BxPC-3 tumor xenografts = assay: BxPC-3 xenograft mouse tumor model; type: in vivo, NOD/SCID mice
Experimental: (§1) Five- to six-week old immunodeficient NOD/SCID mice were used for all experiments. BxPC-3 pancreatic or PC-3 prostate tumor cells (5×10^6 in 100 pi PBS) were transplanted subcutaneously to the right flank of the mice. Ten days later, when BxPC-3 tumors reached a volume of 30-80 mm^3 and PC-3 tumors reached a volume of 40-190 mm^3, the treatment was initiated. Animals received either control huHEA125 mAb at a dose of 15 mg/kg or huHEA125-amanitin conjugate (huHEA125-Ama) at a dose of 50 μg/kg of amanitin. Antibody and conjugate were administered as a single intraperitoneal injection.
(§2) Tumor growth was monitored for 16 days after initiation of the treatment. Tumor size was measured externally every third day using a caliper. Tumor volume was calculated according to the formula: V=π/6*a*b*c, where a, b and c are diameters in three dimensions. Data are presented as a relative tumor size/volume increase from the time of antibody administration.

PC-3 tumor xenografts = assay: PC-3 xenograft mouse tumor model; type: in vivo, NOD/SCID mice
Experimental: as §1, §2

[1] = target: T1, epithelial cell adhesion molecule (EpCAM) (human, UniProt P16422 24-314); assay: binding to EpCAM-expressing cells; method not stated
T1 construct: whole, on cells; also called CD326; EpCAM antigen
T1 sequence (looked up): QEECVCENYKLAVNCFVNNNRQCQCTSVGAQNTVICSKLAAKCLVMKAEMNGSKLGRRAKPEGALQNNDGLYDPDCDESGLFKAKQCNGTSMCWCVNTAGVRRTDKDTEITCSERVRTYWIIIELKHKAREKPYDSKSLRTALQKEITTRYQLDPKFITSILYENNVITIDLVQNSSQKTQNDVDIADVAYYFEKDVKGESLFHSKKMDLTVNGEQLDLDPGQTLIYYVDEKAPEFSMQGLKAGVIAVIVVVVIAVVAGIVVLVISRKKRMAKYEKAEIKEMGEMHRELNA

[2] = 50 μg/kg of amanitin, single i.p. injection, BxPC-3
[3] = 50 μg/kg of amanitin, single i.p. injection, PC-3 tumor bearing mice

## amanitin
RNA-polymerase II
  Kd: 3 nM

## huHEA125: chimeric anti-EpCAM antibody: mouse HEA125 variable domains with human kappa constant light chain and human IgG1 constant heavy chain
BxPC-3 tumor xenografts; 15 mg/kg single i.p. injection, day 16, BxPC-3, FIG. 9
  tumor volume increase: approximately 880%
PC-3 tumor xenografts; 15 mg/kg single i.p. injection, day 10, PC-3, FIG. 10
  tumor volume increase: approximately 550%

## α-Amanitin-glutarate-huHEA125 [huHEA125-amanitin]
BxPC-3 tumor xenografts; [2]
  day from which tumor volume regressed dramatically: 7 days
  mice responding to treatment: All mice responded to treatment
  tumor growth: strongly inhibited
BxPC-3 tumor xenografts; 50 μg/kg of amanitin, single i.p. injection, BxPC-3 tumor bearing mice
  body weight of the mice: neither a decrease in body weight
BxPC-3 tumor xenografts; 50 μg/kg of amanitin, single i.p. injection, day 16, BxPC-3
  mice with tumor completely eradicated: 50%
BxPC-3 tumor xenografts; 50 μg/kg of amanitin, single intraperitoneal injection, BxPC-3 tumor bearing mice
  tolerability: well tolerated
PC-3 tumor xenografts; 50 μg/kg of amanitin, single i.p. injection, PC-3
  tumor growth: strongly retarded
PC-3 tumor xenografts; [3]
  body weight of the mice: No decrease in the body weight
  tolerability: well tolerated

B1: chimeric antibody huHEA125 (antibody, human IgG1, kappa, V domains shown)
VH: EVKLLESGGGLVQPGGSLKLSCAASGFDFSRFWMTWVRQAPGKGLEWIGEINLDSSTINYTPSLKDKFIISRDNAKNTLFLQMSKVRSEDTALYYCSRGISMDYWGQGTSVTVSS
VL: DILLTQSPAILSVSPGERVSFSCRASQSIGISLHWYQQRPSDSPRLLIKYASESISGIPSRFSGSGSGTDFTLSINSVESEDIADYYCQQSNIWPTTFGAGTKLELKR
notes: also called unmodified huHEA125 antibody; non-conjugated huHEA125 antibody
[1]
  Kd: 2.2 nM
